{"source": "patent US20230265167A1", "about": "“COMPOSITIONS HAVING NEUROREGENERATIVE APPLICATIONS” (GRIFOLS WORLDWIDE OPERATIONS LIMITED, priority 2020, published 2023)", "key": {"[1]": {"test_system": "primary human brain cortex-derived neural progenitor cells", "experiment": "Differentiation of primary human neural progenitor cells (β-III-tubulin / GFAP staining)", "assay_type": "cell-based", "settings": "0.8 mg/mL, 72 hours", "description": "Neural progenitor cells maintained as neurospheres were obtained from Lonza (PT-2599). Cells were thawed from a frozen vial of neurospheres and cultured in Human NeuroCult™ NS-A Complete Proliferation media (Stemcell Technologies) for 2 weeks. Neurospheres were dissociated to single cells and plated in Laminin coated wells of assay plates. The neural progenitor cells were seeded in NeuroCult™ NS-A Basal media containing 1/10th concentration of the recommended proliferation supplements, in the absence or presence of ApoTf (0.8 mg/mL) for 72 hours. At the time of analysis, cells were fixed with paraformaldehyde, stained for β-III-tubulin (R&D Systems, MAB1195) and GFAP (Invitrogen, PA3-16727), and imaged on a Molecular Devices Nano imaging instrument. Image analysis was performed by assessing the relative numbers of cells staining positive for β-III-tubulin or GFAP. Values for the indicated conditions are shown with standard deviations as “% β-III-Tubulin Positive” cells (FIG. 2A) or “% GFAP Positive” cells (FIG. 2B)."}, "[2]": {"experiment": "Iron saturation by ICP-AES", "assay_type": "physicochemical", "text": "The skilled person will appreciate that transferrin iron saturation levels can be readily determined without undue burden by quantifying the total iron levels in a sample having a known transferrin concentration. The total iron levels in sample can be measured by any one of a number of methods know by those of skill in the art. Suitable examples include: • Colorimetric assays—Iron is quantitated by measuring the intensity of the violet complex formed in the reaction between ferrozine and Fe^2+ in acetate buffer at 562 nm. Thiourea or other chemicals can be added to complex contaminant metals such Cu^2+, which can also bind with ferrozine and yield falsely elevated iron values. See Ceriotti et al., Improved direct specific determination of serum iron and total iron-binding capacity Clin Chem. 1980, 26(2), 327-31, the contents of which are incorporated herein by reference. • Inductively Coupled Plasma Atomic Emission Spectroscopy (ICP-AES)—is an emission spectroscopy technique that quantifies the mass percentage of metals in a sample. ICP-AES is based on the excitation of metal atoms/ions in the sample using a plasma (an ionized gas consisting of positive ions and free electrons) and analyzing the emission wavelength of the electromagnetic radiation, which is typical of that particular metal. Even though the technique is a standard analytical technique within common general knowledge of the skilled person, further information on ICP-AES can be found in Manley et al., Simultaneous Cu-, Fe-, and Zn-specific detection of metalloproteins contained in rabbit plasma by size-exclusion chromatography-inductively coupled plasma atomic emission spectroscopy. J Biol Inorg Chem. 2009, 14, 61-74, the contents of which are incorporated herein by reference.\nThe preferred method of determining the iron content of a sample for the purposes of the therapeutic method of the present invention is ICP-AES. The iron saturation of transferrin is then calculated based on the transferrin protein concentration, total iron content of the sample, and the fact that wild type transferrin has two iron-binding sites. Wild type human transferrin (molecular weight 79,750) can bind two iron atoms such that a sample containing 1 g of transferrin would be 100% saturated by 1.4 mg of iron.\nProtein purity was determined by SDS-PAGE. Iron saturation levels were determined using ICP-AES in accordance with the procedures outlined in Manley et al., J Biol Inorg Chem (2009) 14:61-74, the contents of which are incorporated herein by reference."}, "[3]": {"test_system": "C57BL/6J mice with transient MCAo", "experiment": "Rotarod test after transient MCAo", "assay_type": "in vivo, mouse", "settings": "FIG. 10B, vs saline", "description": "(§1) C57BL/6J mice (ca. 20 g) were anaesthetized under isoflurane and, after dissection, a 6.0 silicon-coated monofilament suture was inserted into the external carotid artery to occlude the middle cerebral artery (MCAo). The occlusion was carried out for 60 minutes under temperature control.\n(§2) Only animals with a ‘neuroscore’ of 4 or greater were considered for further testing (n=8-10 animals/group). At six hours post-occlusion, mice were injected daily with 350 mg/kg of Apo-transferrin (i.p.) or an equal volume of saline for a total of seven days, as well as with 50 mg/kg Bromodeoxyuridine (BrdU; Sigma-Aldrich Chemical, St. Louis, Mo.), both articles delivered by intraperitoneal administration. Weight changes were monitored daily.\n(§3) Mice were prepared as indicated in Example 9 above and were subjected to assessments at 3 days and 1, 2, 3, 4 weeks post-MCAo, as indicated (n=8-10 animals/group). Motor coordination (i.e. equilibrium behavior and locomotor ability as a function of cortico-striatal function) was assessed using a rotarod test. Learning and memory capacity were measured using the NORT (novel object recognition test; for example, Anglada-Huguet et al., 2014, Molecular Neurobiology, vol. 49, pages 784-795; Denninger et al., 2018, J. Vis. Exp., vol. 141, e58593).\nThe time that it takes an animal to fall (Latency to fall) from the rotarod is shown vs time after MCAo. […]"}, "[4]": {"test_system": "C57BL/6J mice with transient MCAo", "experiment": "Novel object recognition test (NORT) after transient MCAo", "assay_type": "in vivo, mouse", "settings": "FIG. 10C, at least two weeks, vs saline", "description": "as §1, §2, §3\nThe time that it takes an animal to fall (Latency to fall) from the rotarod is shown vs time after MCAo. The motor skills of the mice reflect those of the neuroscore in FIG. 10A, with an increased rate of improvement in motor/balance skills, as measured by the amount of time animals stayed on the rotarod apparatus. […] The Discrimination (%) is a description of an animal's memory, as measured by the percentage of time in which an animal investigates newly presented objects compared to the time they investigate previously presented objects. Animals with better cognition and memory spend more time with the novel object due to memories of the object previously presented to the animal; this is shown as increased % Discrimination."}}, "note": "Entries after “also recorded” stand apart in the source; their conditions may differ.", "data": [{"substance": "apo-transferrin: iron-free form of transferrin protein, obtained and purified from pooled human plasma", "values": [{"measurement": "% β-III-Tubulin Positive cells (neurons)", "setting": "[1]; FIG. 2A", "result": "dramatically increases the percentage of cells differentiated to neurons; also recorded: induces primary human neural progenitor cells to become β-III-tubulin protein positive neurons"}, {"measurement": "% GFAP Positive cells (astrocytes)", "setting": "[1]; FIG. 2B", "result": "dramatically increases; also recorded: GFAP protein positive astrocytes cells"}, {"measurement": "Iron Saturation (%)", "setting": "[2]", "result": "< 0.3", "unit": "%"}, {"measurement": "motor and balance skills (Latency to fall from rotarod)", "setting": "[3]", "result": "better motor skills; also recorded: increased motor and balance skills"}, {"measurement": "motor and balance skills (Latency to fall from rotarod)", "setting": "[3]; listed as apoTf", "result": "better overall abilities to remain on the rotarod"}, {"measurement": "learning recognition / Discrimination (%) in NORT", "setting": "[4]", "result": "higher cognition"}, {"measurement": "learning recognition / Discrimination (%) in NORT", "setting": "[4]; listed as ApoTf", "result": "increases learning recognition functions"}, {"measurement": "learning recognition / Discrimination (%) in NORT", "setting": "[4]; listed as apoTf", "result": "higher ‘percent Discrimination’"}]}]}
